PMC3597730, “Novel Phenolic Inhibitors of Small/Intermediate-Conductance Ca^2+-Activated K^+ Channels, KCa3.1 and KCa2.3” (PLoS ONE, 2013)
Where “and” joins values, the source holds several entries; their conditions need not be identical. Equal entries are not always repeated.

Columns and labels:
[1] = test system: porcine coronary artery rings; assay: Isometric myography: U46619-induced contractions; settings: 0.2 µM U46619
Experimental: (§1) Myography on porcine coronary artery rings was performed as described in detail previously, [30]. In brief, left anterior descending arteries or posterior descending arteries were cut into rings (3 mm long) and rings were mounted onto a isometric force transducer (Pioden UF1, Graham Bell House, Canterbury, UK). The organ bath contained a 5 ml Krebs buffer maintained at 37°C and gassed with 95% O2/5% CO2. The composition of the Krebs buffer was as follows (in mM): NaCl 120, NaHCO3 24.5, CaCl2 2.4, KCl 4.7, MgSO4 1.2, KH2PO4 1 and glucose 5.6, pH 7.4. Each ring was passively stretched to an initial tension of 1 gr (10 mN). Changes in force were monitored and recorded on a computer using a Mac Lab System/8e program (AD Instruments Inc, Milford, Ma, USA), and digitalized at a sample rate of 0.5 sec.
(§2) To measure specifically endothelium-derived hyperpolarization-mediated vasorelaxation (EDH), the NO-synthase blocker, Nω-nitro-L-arginine (L-NNA, 300 µM), and the cyclooxygenase blocker, indomethacin (10 µM), were added to the buffer. Preparations were washed three times and were allowed to equilibrate for 40 min. Within this period, the incubation medium was renewed every 20 min. […] Ten min later, bradykinin (1 µM) was added for another 10 min, followed by washout (over at least 10 min). This protocol was repeated (2nd stimulation). Thereafter, we performed a 3rd round of pre-contraction and vasorelaxation, but using the vasospasmic thromboxane analogue U46619 (0.2 µM) as vasocontracting agent. At the end of the experiments, rings were allowed to contract maximally in a KCl (60 mM) buffer for 10 min followed by addition of the compounds. Finally, sodium nitroprusside (10 µM) was added to achieve maximal endothelium-independent vasorelaxation.
(§3) DMSO as the vehicle had no vasoactive effect per se on the tissue. Other compounds were dissolved in Milli-Q water.
(§4) For data analysis, we determined absolute increases in force to 5-HT, U46619, or 60 mM KCl. Bradykinin-induced relaxations were determined as % change of pre-contraction to either vasocontracting compound and relative to the fully relaxed state (in the absence of the vasocontracting agent).

[2] = test system: porcine coronary artery rings; assay: Isometric myography: bradykinin-induced (EDH) relaxation; settings: for % relaxation, 5-HT-precontraction / % relaxation, U46619-precontraction: 1 µM bradykinin
Experimental: as §1, §2, §3, §4

[3] = test system: porcine coronary artery rings; assay: Isometric myography: contractions to 60 mM K+
Experimental: as §1
as §2, with “vasorelaxation. […]” for “vasorelaxation.”
as §4

[4] = test system: porcine coronary artery rings; assay: Isometric myography: endothelium-independent relaxation to sodium nitroprusside; settings: pre-contracted by 60 mM K+
Experimental: as §1
as §2, with “vasorelaxation. […]” for “vasorelaxation.”
as §4

[5] = test system: porcine coronary artery rings; assay: Isometric myography: 5-HT-induced contractions; settings: for Δg, 1st stimulation / Δg, 2nd stimulation: 1 µM 5-HT
Experimental: as §1, §2, §3, §4

hKv1.2 = molecular target: T1, hKv1.2 (Homo sapiens, UniProt P16389); assay: Whole-cell patch-clamp of cloned hKv1.2; format: cell-based
T1 construct: expressed in transfected cells; host or cells: B82 murine fibroblasts (Methods)
T1 sequence (P16389 whole entry): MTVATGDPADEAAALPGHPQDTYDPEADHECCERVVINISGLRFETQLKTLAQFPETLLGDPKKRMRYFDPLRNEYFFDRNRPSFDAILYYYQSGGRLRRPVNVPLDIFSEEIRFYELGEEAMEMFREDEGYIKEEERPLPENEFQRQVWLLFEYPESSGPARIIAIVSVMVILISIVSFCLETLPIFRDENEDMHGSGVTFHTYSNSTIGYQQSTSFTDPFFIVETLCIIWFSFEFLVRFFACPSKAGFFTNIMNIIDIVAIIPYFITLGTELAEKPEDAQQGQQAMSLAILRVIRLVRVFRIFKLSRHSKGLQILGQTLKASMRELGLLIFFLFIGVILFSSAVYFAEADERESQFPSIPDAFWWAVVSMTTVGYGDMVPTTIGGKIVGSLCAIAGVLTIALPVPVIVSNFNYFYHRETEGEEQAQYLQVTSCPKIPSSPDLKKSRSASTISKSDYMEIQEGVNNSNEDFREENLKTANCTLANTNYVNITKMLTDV

[6] = molecular target: T2, KCa3.1 channels in 3T3 fibroblasts (Mus musculus, UniProt O89109); assay: Whole-cell patch-clamp of KCa3.1 currents in 3T3 fibroblasts; format: cell-based
T2 construct: KCa3.1 channels in 3T3 fibroblasts; endogenous in cells; host or cells: 3T3-L1 mouse embryonic fibroblasts

KCa1.1 = test system: T3, KCa1.1; assay: Whole-cell patch-clamp of KCa1.1 in U251 glioblastoma cells; format: cell-based, human
T3 construct: KCa1.1 in human U251 glioblastoma cells; endogenous in cells; host or cells: U251 glioblastoma cells

hKCa2.3 = molecular target: T4, hKCa2.3 (Homo sapiens, UniProt Q9UGI6); assay: Whole-cell patch-clamp of hKCa2.3 in COS7 cells; format: cell-based
T4 construct: expressed in transfected cells; host or cells: COS7
T4 sequence (Q9UGI6 whole entry): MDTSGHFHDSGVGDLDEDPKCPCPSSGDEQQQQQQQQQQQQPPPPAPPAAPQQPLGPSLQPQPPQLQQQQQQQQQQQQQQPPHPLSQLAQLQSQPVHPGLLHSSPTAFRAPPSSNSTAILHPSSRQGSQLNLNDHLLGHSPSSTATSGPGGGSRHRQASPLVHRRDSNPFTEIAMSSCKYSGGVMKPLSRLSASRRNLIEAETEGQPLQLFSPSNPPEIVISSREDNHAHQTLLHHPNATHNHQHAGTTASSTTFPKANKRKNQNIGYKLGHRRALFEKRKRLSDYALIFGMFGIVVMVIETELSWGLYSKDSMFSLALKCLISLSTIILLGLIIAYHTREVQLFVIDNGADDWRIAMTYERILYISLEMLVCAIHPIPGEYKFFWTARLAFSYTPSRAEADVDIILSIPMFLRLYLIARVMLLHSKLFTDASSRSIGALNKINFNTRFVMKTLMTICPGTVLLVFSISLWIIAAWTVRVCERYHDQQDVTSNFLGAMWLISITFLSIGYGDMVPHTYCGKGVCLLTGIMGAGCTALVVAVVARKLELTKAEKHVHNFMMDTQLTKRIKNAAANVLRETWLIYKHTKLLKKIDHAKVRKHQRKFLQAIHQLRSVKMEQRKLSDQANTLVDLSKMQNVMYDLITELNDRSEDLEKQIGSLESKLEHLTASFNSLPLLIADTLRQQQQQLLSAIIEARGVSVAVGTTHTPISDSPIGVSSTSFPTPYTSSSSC

[7] = test system: mixed KCa3.1 and KCa2.3 currents in PCAEC; assay: Whole-cell patch-clamp of KCa currents in porcine coronary artery endothelial cells; format: cell-based; settings: 50 µM, n = 1
3T3 fibroblasts = assay: Cell proliferation assay (Janus B Green staining); format: cell-based, mouse; settings: 3T3 cells
Experimental: Cell proliferation was spectrophotometrically assessed as described previously with some modifications. Briefly, 3T3 fibroblasts (1500 cells/well) were seeded in 96-well plates (TPP. Switzerland), cultured in DMEM containing 10% FCS (Lonza, Switzerland) with 13b or vehicle (DMSO), and formalin-fixed at days 0,1,2 and 3. To exclude the possibility that DMSO as vehicle affected the cell viability per se, final DMSO concentrations were the same for each concentration of 13b and the controls. Fixed cells were stained for 5 minutes with 50 ul/well of 0.3% Janus B Green dye (Acros Organics, Belgium) at room temperature with constant stirring followed by a de-staining step with water. Dye was eluted with 200 ul/well of 0.5 M HCl of hydrochloric acid and top-read measurements of absorbance were performed in a microplate reader (Sinergy HT, Biotek, USA) at 595 nm.

hERG = test system: T5, hERG; assay: Whole-cell patch-clamp of hERG tail currents in HEK293 cells; format: cell-based, human; settings: human, HEK293 cells expressing hERG, pH 7.4; hERG; compound 10 µM; read-out: % of control at 10 µM
T5 construct: expressed in transfected cells; gift of Craig January, University of Wisconsin

hERG channels = test system: T6, hERG channels; assay: as above; format: cell-based, human; settings: 13b 1 µM; caffeic acid, flufenamic acid 10 µM (Table S1)
T6 construct: expressed in transfected cells; gift of Craig January, University of Wisconsin

[8] = 13b 0.5 µM, SKA-31 1 µM, alone or combined
[9] = SKA-31 10 µM, alone or with 13b 0.5 µM

Nc1nc2c(ccc3ccccc32)s1 [SKA-31, naphtho[1,2-d]thiazol-2-ylamine]
Δg [1, 8]: 1.9 ± 0.5 g
Δg [1, 9]: 1.7 ± 0.2 g
% relaxation, 5-HT-precontraction [2, 8]: 65±6%
% relaxation, U46619-precontraction [2, 8]: 5% and 5±1%
% relaxation, 5-HT-precontraction [2, 9]: 47±8%
% relaxation, U46619-precontraction [2, 9]: 10% and 10±2%
change of bradykinin relaxation vs. vehicle, 5-HT-precontracted rings [2, 8]: +110%
change of bradykinin relaxation vs. vehicle, 5-HT-precontracted rings [2, 9]: +52%
Δg, contraction to 60 mM K+ [3, 8]: 3.2 ± 0.5 g
Δg, contraction to 60 mM K+ [3, 9]: 2.5 ± 0.4 g
% relaxation to 10 µM SNP [4, 8]: 82±8%
% relaxation to 10 µM SNP [4, 9]: 80±5%
Δg, 1st stimulation [5, 8]: 0.4 ± 0.1 g
Δg, 2nd stimulation [5, 8]: 0.5 ± 0.1 g
Δg, 1st stimulation [5, 9]: 0.4 ± 0.1 g
Δg, 2nd stimulation [5, 9]: 0.23 ± 0.02 g
change of amplitude of 5-HT contraction vs. vehicle, 2nd stimulation [5, 9]: −44%

O=C(O)/C=C/c1ccc(O)c(O)c1 [Caffeic Acid, (E)-3-(3,4-dihydroxyphenyl)propenoic acid]
hKv1.2 blocking effect (in words) (hKv1.2; flufenamic acid and caffeic acid 10 and 50 µM, 13c 1 µM): did not block
remaining activity at 10 µM (hKv1.2; hKv1.2, compound 10 µM, read-out: % of control at 10 µM): 100 ± 2%
remaining activity at 50 µM (hKv1.2; hKv1.2, compound 50 µM, read-out: % of control at 50 µM): 97 ± 1%
remaining activity at 10 µM ([6]; read-out: KCa3.1 current blocked, % of control): 28 ± 10%
KCa3.1 blocking effect (in words) ([6]; whole-cell, 3T3 fibroblasts, concentrations up to 50 µM as in Table 1): Complete inhibition
EC50 ([6]; whole-cell, 3T3 fibroblasts, read-out: EC50 of KCa3.1 inhibition): 1300 nM and 1000 to 10000 nM
KCa1.1 effect (in words) (KCa1.1; U251 glioblastoma cells, 13b 1 µM, caffeic acid 10 µM): no blocking or activating effects
% of control at 10 µM (KCa1.1; hKCa1.1, compound 10 µM): 103 ± 14%
remaining activity at 10 µM (hKCa2.3; COS-7, read-out: % of control at 10 µM): 108 ± 7%
remaining activity at 50 µM (hKCa2.3; COS-7, read-out: % of control at 50 µM): 97 ± 1%
KCa2.3 blocking effect (in words) (hKCa2.3; micromolar concentrations): no blocking effects
mixed KCa3.1/KCa2.3 current, % of control [7]: 6%
change of proliferation vs. vehicle-treated controls (3T3 fibroblasts; 25 µM): −27%
change of proliferation vs. vehicle-treated controls (3T3 fibroblasts; 50 µM): −56%
activity at 10 µM (hERG): 97 ± 6%
hERG effect (in words) (hERG channels): not blocked
